Laboratory results reported in US10648968B2, “In vitro test system to evaluate xenobiotics as immune-modulators of drug transport and metabolism in human hepatocytes” (XenoTech, LLC, priority 2011, dated 2020).

What was measured:
CYP1A2 = conditions: co-cultures of hepatocyte and Kupffer cells, three livers, treated daily for 72 hours; phenacetin O-dealkylation by LC/MS/MS
CYP3A4 = conditions: co-cultures of hepatocyte and Kupffer cells, three livers, treated daily for 72 hours; testosterone 6β-hydroxylation by LC/MS/MS
[1] = in humans following LPS treatment; correlated with changes in TNF and IL-6; cited from earlier work

Q: With lipopolysaccharides [LPS] as the substance, how does the CYP1A2 activity (CYP1A2) read?
A: decrease

Q: And the CYP3A4 activity (CYP3A4)?
A: decrease

Q: And the “antipyrine (AP) clearance” value [1]?
A: changes
